How the values were obtained:
wax moth = assay: topical application to wax moth, fifth larval stage, maturation inhibition; assay type: in vivo
Excerpt: (§1) The compounds were applied in acetone solution at concentrations of 10 percent, 1 percent and 0.5 percent. One microliter of the acetone solution was applied to each test specimen. Ten test specimens were employed for each insect at each concentration and compared to ten acetone controls and ten zero controls. Approximately eight to ten days were required before results could be ascertained.
(§2) The insect species used in the test were Tenebrio molitor pupae; milkweed bug, fourth nymphal stage; wax moth, fifth larval stage; and Mexican bean beetle, fourth larval stage. At the completion of the test, each specimen was examined for the degree of juvenile and adult characteristics. The milkweed bug, wax moth, and Mexican bean beetle were assigned a numerical rating of 0 to 3 with 0 indicating no effect and 3 indicating the maximum effect or least adult development. Because of differences in morphology the Tenebrio rating scale was 0 to 4. In all cases a rating of 2 or higher means that the insect is incapable of reproduction. The number of specimens in each rating classification are given. In any test were the total of specimens reported is less than 10, those unreported died in some metamorphic stage. Such deaths indicate control, since the dead insects are not capable of reproducing.

Tenebrio molitor pupae = assay: topical application to Tenebrio molitor pupae, maturation inhibition; assay type: in vivo
Excerpt: as §1, §2

housefly larvae = assay: topical application to housefly larvae; assay type: in vivo, Musca domestica; conditions: scale 0-2
Description: as §1
A number of compounds were tested against housefly larvae by topical application in an acetone solution using the method described above for the primary test against Tenebrio, milkweed bug, wax moth, and Mexican bean bettel. The results with the first compound are reported on a scale of 0 to 3 with 0 indicating a normal adult, 1 indicating an adult with deformed wings, 2 indicating a partially emerged adult, and 3 indicating no evidence of emergence. The results for the other compounds are reported onn a scale of 0 to 2 with 0 indicating a normal adult, 1 indicating a partially emerged adult and 2 indicating no evidence of emergence.

Mexican bean beetle = assay: topical application to Mexican bean beetle, fourth larval stage, maturation inhibition; assay type: in vivo
Excerpt: as §1, §2

milkweed bug = assay: topical application to milkweed bug, fourth nymphal stage, maturation inhibition; assay type: in vivo; conditions: rating scale 0-3
Excerpt: as §1, §2

[1] = 10% in acetone, 1 microliter topical, rating scale 0 (no effect) to 3 (maximum)
[2] = 10% in acetone, 1 microliter topical, rating scale 0 (no effect) to 4 (maximum)

SMILES | number of specimens in rating 0 (wax moth; 0.5%, rating scale 0-3) [specimens] | number of specimens in rating 0 (wax moth; 1%, rating scale 0-3) [specimens] | number of specimens in rating 2 (wax moth; 1%, rating scale 0-3) [specimens] | number of specimens in rating 0 (wax moth; [1]) [specimens] | number of specimens in rating 1 (wax moth; 10%, rating scale 0-3) [specimens] | number of specimens in rating 0 (Tenebrio molitor pupae; 0.5%, rating scale 0-4) [specimens] | number of specimens in rating 0 (Tenebrio molitor pupae; 1%, rating scale 0-4) [specimens] | number of specimens in rating 1 (Tenebrio molitor pupae; 1%, rating scale 0-4) [specimens] | number of specimens in rating 3 (Tenebrio molitor pupae; 1%, rating scale 0-4) [specimens] | number of specimens in rating 4 (Tenebrio molitor pupae; 10%, rating scale 0-4) [specimens] | number of specimens in rating 3 (Mexican bean beetle; 1%, rating scale 0-3) [specimens] | number of specimens in rating 3 (Mexican bean beetle; 10%, rating scale 0-3) [specimens] | number of specimens in rating 3 (milkweed bug; 0.5%) [specimens] | number of specimens in rating 3 (milkweed bug; 1%) [specimens] | number of specimens in rating 3 (milkweed bug; 10%) [specimens] | number of specimens in rating 0 (Tenebrio molitor pupae; [2]) [specimens] | number of specimens in rating 0 (Mexican bean beetle; 0.5%, rating scale 0-3) [specimens] | number of specimens in rating 0 (Mexican bean beetle; 1%, rating scale 0-3) [specimens] | number of specimens in rating 0 (Mexican bean beetle; [1]) [specimens] | number of specimens in rating 0 (milkweed bug; 0.5%) [specimens] | other results
CC(C)=CCC/C(C)=C/CCc1ccc(Cl)cc1 [trans-2,6-dimethyl-9-(4-chlorophenyl)-2,6-nonadiene] | 10 | 9 | 1 | 6 | 1 | 10 | 4 | 3 | 3 | 10 | 10 | 10 | 10 | 10 | 10 | – | – | – | – | – | number of specimens in rating 2 (wax moth; 10%, rating scale 0-3): 3 specimens; number in rating 0 (normal adult) (housefly larvae; 0.5%): 4; number in rating 2 (no evidence of emergence) (housefly larvae; 0.5%): 6; number in rating 0 (normal adult) (housefly larvae; 1%): 3; number in rating 1 (partially emerged adult) (housefly larvae; 1%): 3; number in rating 2 (no evidence of emergence) (housefly larvae; 1%): 4; number in rating 0 (normal adult) (housefly larvae; 10%): 3; number in rating 1 (partially emerged adult) (housefly larvae; 10%): 1; number in rating 2 (no evidence of emergence) (housefly larvae; 10%): 5; number of specimens in rating 3 (Mexican bean beetle; 0.5%, rating scale 0-3): 10 specimens
CC(C)=CCC/C(C)=C/CCc1ccc(C#N)cc1 [trans-4-(4,8-DIMETHYL-3,7-NONADIENYL)BENZONITRILE] | 10 | 10 | – | 10 | – | 10 | 10 | – | – | 1 | – | – | 1 | 7 | 10 | 9 | 10 | 10 | 10 | 3 | number of specimens in rating 1 (milkweed bug; 0.5%): 5 specimens; number of specimens in rating 2 (milkweed bug; 0.5%): 1 specimens; number of specimens in rating 2 (milkweed bug; 1%): 3 specimens
COc1ccc(CCC=C(C)CCC=C(C)C)cc1 [2,6-DIMETHYL-9-(4-METHOXYPHENYL)-2,6-NONADIENE] | 10 | 9 | – | 10 | – | 1 | – | 1 | 5 | – | – | – | – | – | – | – | 10 | 10 | 6 | 10 | number of specimens in rating 1 (Tenebrio molitor pupae; 0.5%, rating scale 0-4): 6 specimens; number of specimens in rating 2 (Tenebrio molitor pupae; 0.5%, rating scale 0-4): 3 specimens; number of specimens in rating 2 (Tenebrio molitor pupae; 1%, rating scale 0-4): 2 specimens; number of specimens in rating 4 (Tenebrio molitor pupae; 1%, rating scale 0-4): 2 specimens; number of specimens in rating 1 (Mexican bean beetle; 10%, rating scale 0-3): 1 specimens; number of specimens in rating 2 (Mexican bean beetle; 10%, rating scale 0-3): 3 specimens; number of specimens in rating 0 (milkweed bug; 1%): 5 specimens; number of specimens in rating 1 (milkweed bug; 1%): 5 specimens
CC(C)=CCC/C(C)=C/CCc1cccc(Cl)c1 [trans-2,6-dimethyl-9-(3-chlorophenyl)-2,6-nonadiene] | 10 | 7 | 2 | 7 | 3 | 10 | 10 | – | – | – | 1 | 10 | 10 | 10 | 10 | 2 | 10 | 9 | – | – | number of specimens in rating 1 (wax moth; 1%, rating scale 0-3): 1 specimens; number of specimens in rating 1 (Tenebrio molitor pupae; 10%, rating scale 0-4): 1 specimens; number of specimens in rating 2 (Tenebrio molitor pupae; 10%, rating scale 0-4): 1 specimens; number of specimens in rating 3 (Tenebrio molitor pupae; 10%, rating scale 0-4): 6 specimens
CC(C)=CCC/C(C)=C/CCc1cccc(C)c1 [trans-2,6-dimethyl-9-(3-tolyl)-2,6-nonadiene] | 10 | 10 | – | 10 | – | 10 | 9 | – | – | 10 | 7 | 10 | – | 1 | 10 | – | 9 | 1 | – | 10 | number of specimens in rating 2 (Tenebrio molitor pupae; 1%, rating scale 0-4): 1 specimens; number of specimens in rating 2 (Mexican bean beetle; 0.5%, rating scale 0-3): 1 specimens; number of specimens in rating 1 (Mexican bean beetle; 1%, rating scale 0-3): 1 specimens; number of specimens in rating 2 (Mexican bean beetle; 1%, rating scale 0-3): 1 specimens; number of specimens in rating 0 (milkweed bug; 1%): 5 specimens; number of specimens in rating 2 (milkweed bug; 1%): 2 specimens

— patent US3962282A, “Juvenile hormone mimics” (priority 1974, dated 1976)
